Source: patent publication US5886051A, “Methods and compositions for the treatment of neurodegeneration” (University Of Florida Research Foundation, Inc., priority 1995, dated 1999)

System: N-methyl-D-aspartate receptor complex
Experiment: [3H]MK-801 binding to rat cortical membranes with excess L-glutamate and glycine, modulated by polyamines
Details: for [3H]MK-801 binding relative to "100% Control": 100 μM L-Glu, 100 μM Gly, 2 nM [3H]MK-801, mean ± SD; for effect on [3H]MK-801 binding: at 100 μm; for concentration above which the polyamine is antagonistic: piperidine polyamines, tested 0.05-1,000 μM
From the text: Data are plotted as means ±standard deviation for four separate experiments on each tetraamine: (--.tangle-solidup.--) SPM (n=4), (.largecircle.) DMNSPM (n=4), (.circle-solid.) DMHSPM (n=4), (.rect-hollow.) DENSPM (n=4), (.box-solid.) DEHSPM (N=4), (.increment.) DBHSPM (n=4) and (--.tangle-solidup.--) BAHSPM (n=4).
Cerebral cortices from young male Sprague-Dawley rats (200-300 g) were homogenized with 10 volumes of ice-cold 0.32M sucrose using a motor-driven glass/Teflon homogenizer. The homogenate was centrifuged at 1,000 g for 10 minutes. The 1,000 g pellet was re-suspended in buffer A (5 mM Tris-HCl, pH 7.7 at 4° C.) and centrifuged at 8,000 g for 20 minutes. The supernatant and upper buffy coat of the pellet were combined and centrifuged at 50,000 g for 20 minutes. The pellet was then re-suspended in 10 volumes of buffer A and homogenized using high-intensity ultrasound and centrifuged at 50,000 g, discarding the supernatant. The pellet was washed in this manner an additional three times and stored as a frozen suspension at […] for at least 18 hours, but no longer than two weeks, before use.
For binding experiments, frozen membranes were thawed, pelleted at 50,000 g for 20 minutes and washed as described above, except that 20 volumes of buffer A were used for re-suspension, for a total of five times. The final pellet was re-suspended in buffer B (5 mM Tris-HCl, pH 7.5 at 23° C.).
Binding assays were performed in triplicate at 23° C. for 1 hour and were terminated by filtration through Whatman GF/B glass fiber filters followed by three 5.0 ml rinses of ice-cold buffer B using a Brandel M-48 cell harvester.

Row | Structure (SMILES) | [3H]MK-801 binding relative to "100% Control" (1 μM tetraamine) [%] | [3H]MK-801 binding relative to "100% Control" (10 μM tetraamine) [%] | also measured
1 | CC(C)(C)NCCCCNCCCCNCCCCNC(C)(C)C [DBHSPM] | 106.5±8.0 | 33.0±4.0 | 
2 | C(CCNC1CCNCC1)CNC1CCNCC1 [PIP[3,4,3]] |  |  | effect on [3H]MK-801 binding: agonistic
3 | CCNCCCNCCCNCCCNCC [DENSPM] | 113.7±5.9 | 63.7±5.9 | 
4 | CCNCCCCNCCCCNCCCCNCC [DEHSPM, diethylhomospermine] | 114.3±4.5 | 53.9±6.0 | 
5 | C(CNC1CCNCC1)CNC1CCNCC1 [PIP[3,3,3]] |  |  | effect on [3H]MK-801 binding: still agonistic
6 | Cl.Cl.Cl.Cl.NCCCNCCCCNCCCN [SPM, Spermine tetrahydrochloride, reference compound] | 123.2±5.0 |  | [3H]MK-801 binding relative to "100% Control" (500 μM tetraamine): 82.0±8.1%; [3H]MK-801 binding relative to "100% Control" (1,000 μM tetraamine, 1000 µM): 78.9±8.3%; effect on [3H]MK-801 binding relative to "100% Control" (at 500 and 1,000 μM): moderate antagonism
7 | C(CCNCCC1CCNCC1)CNCCC1CCNCC1 [PIP[5,4,5], N,N'-1,4-Butanediylbis(4-piperidineethanamine)] |  |  | concentration above which the polyamine is antagonistic: above 13 μm
8 | C(CCNCC1CCNCC1)CNCC1CCNCC1 [PIP[4,4,4], N,N'-1,4-Butanediylbis(4-piperidinemethanamine)] |  |  | concentration above which the polyamine is antagonistic: above 12 μm

Second part, led by results:

Row | [3H]MK-801 binding relative to "100% Control" (1 μM tetraamine) [%] | [3H]MK-801 binding relative to "100% Control" (10 μM tetraamine) [%] | Structure (SMILES) | also measured
9 | 117.8±8.1 | 76.3±7.0 | CNCCCCNCCCCNCCCCNC [DMHSPM] | 
10 | 120.6±3.1 | 87.9±6.0 | CNCCCNCCCNCCCNC [DMNSPM] | 
